Laboratory results from the NIST ThermoML archive (doi:10.1021/acs.jced.5b00075).

Assays:
[1] = Crystal; DTA
[2] = Molar enthalpy of transition or fusion; settings: Crystal; DSC
[3] = molar heat capacity at constant pressure; settings: 101.33 kPa, Small sample (50 mg) DSC

C(=C\c1ccccc1)/CN1CCN(C(c2ccccc2)c2ccccc2)CC1 [cinnarizine]
Settings	Molar enthalpy of transition or fusion [kcal/mol]	Normal melting temperature [°C]
[1]	–	120.83
[2]	8.87	–

[3]
Settings	molar heat capacity at constant pressure [J/K/mol]
305 K, Crystal	307.19
310 K, Crystal	314.6
315 K, Crystal	322.02
320 K, Crystal	329.43
325 K, Crystal	336.84
330 K, Crystal	344.26
335 K, Crystal	351.67
340 K, Crystal	359.09
345 K, Crystal	366.5
350 K, Crystal	373.91
355 K, Crystal	381.33
360 K, Crystal	388.74
365 K, Crystal	396.15
370 K, Crystal	403.57
375 K, Crystal	410.98
380 K, Crystal	418.4
385 K, Crystal	425.81
400 K, Liquid	558.85
405 K, Liquid	563.97
410 K, Liquid	569.09
415 K, Liquid	574.21
